Reference: patent US20120328696A1, “ANTI-PARKINSONIAN COMPOUND ACETYLSALICYLIC ACID MALTOL ESTER” (Hutecs Korea Pharmaceutical Co., Ltd., priority 2008, published 2012)

Columns and labels:
Format in all cases: in vivo
interferon (IFN)-γ = assay: IFN-γ expression after MA (western blot); details: p.o.; AME 50, EBS 20, rottlerin 20 mg/kg; MA 8 mg/kg i.p. x4; GPx-1 (+/+) and (−/−) mice
Experimental: (§1) The mice received four times of MA (8 mg/kg, ip) or saline as a 2 hr-time interval. Chemicals (AME, EBS, and PKC inhibitors) were administrated for 5 consecutive days (twice daily), and were given 2 times at 4 hr and 30 min before the first MA injection as shown in the experimental schedule. Animals were sacrificed at 4 hrs and 3 days after the final MA administration.
(§2) The western blot assays was performed as described previously (Kim et al., 2003). Tissues were homogenized in lysis buffer, containing 200 mM Tris HCl (pH 6.8), 1% SDS, 5 mM EGTA (ethylene glycol tetraacetic acid), 5 mM EDTA (ethylenediaminetetraacetic acid), 10% glycerol, 1× phosphatase inhibitor cocktail I, 1× protease inhibitor cocktail. Lysate was centrifuged at 12,000×g for 30 min and supernatant fraction was used for Western blot analysis. Proteins (20-50 ug/lane) were separated by 6%, 8%, 10% or 15% sodium dodecyl sulfate-polyacrylamide gel electrophoresis and transferred onto the PVDF membranes. Following transfer, the membranes were preincubated with 5% non-fat milk and incubated overnight at 4° C. with primary antibody against β-actin (1:50000, Sigma, St. Louis, Mo., USA), TH (1:5000, Chemicon), TH phosphor-Ser 19 (1:1000, Chemicon,), TH phosphor-Ser 31 (1:500, Chemicon), TH phosphor-Ser 40 (1:500, Chemicon), F4/80 (1:500, Serotec), GPx1 (1:2500, AbFrontier), PKC (1:5000, Santa Cruz biotechnology, Santa Cruz, Calif., USA), p53 (1:5000, Cell signaling, Beverly, Mass., USA), MDM2 (1:1000, BD Pharmingen, San Jose, Calif., USA), MDM2 phospho-Ser 166 (1:1000, cell signaling), BDNF (1:500, Chemicon), GDNF (1:250, Santa Cruz), COX-2 (1:2000, Cayman, Ann Arbor, MC, USA), IL-6 (1:2000, Abcam, Cambridge, Mass., USA), TNF-a (1:1000, R&D Systems, Mckinley place NE, NM, USA), IFN-γ (1:500, Chemicon) or Iba-1 (1:500, Wako, Osaka, Japan). And then, membranes were incubated with HRP-conjugated secondary anti-rabbit IgG (1:1000, GE healthcare, Piscataway, N.J., USA), anti-mouse IgG (1:1000, Sigma) or anti-goat IgG (1:1000, Sigma) for 2 h. […]

protein carbonyl = assay: Striatal protein oxidation (protein carbonyl) after MA; details: biochemical assay and slot blot; striatum, 3 days after final MA; p.o.; AME 50, EBS 20, rottlerin 20 mg/kg; GPx-1 (+/+) and (−/−) mice
Experimental: as §1
The amount of oxidized proteins was measured using the Oxyblot kit (Chemicon International, CA) according to the instruction provided by manufacturer. Briefly, the protein carbonyl content was measured by first forming labeled protein hydrazone derivatives using 2,4-dinitrophenylhydrazide (DNP). The DNP-derivatized protein samples were transferred onto PVDF membrane by slot blot apparatus (GE Healthcare). Blots were then incubated with primary antibody specific to the DNP moiety, followed by incubation with a HRP-conjugated secondary antibody. Subsequent visualization was performed using enhanced chemiluminescence system (ECL Plus®, GE healthcare) (Gemma et al., 2004).
The extent of protein carbonyl oxidation in the striatum was assessed by measuring the content of protein carbonyl groups, which was determined spectrophotometrically with the 2,4-dinitrophenyl-hydrazine (DNPH)-labeling procedure (Kim et al., 1997b, 2000b, 2002) as described by Oliver et al. (1987). The results were expressed as nmol of DNPH incorporated/mg protein based on the extinction coefficient for aliphatic hydrazones of 21 mM^−1 cm^−1. Protein was measured using the BCA protein assay reagent (Pierce, Rockford, Ill., USA).

[1] = test system: tumor necrosis factor (TNF)-α; assay: TNF-α expression after MA (western blot); details: p.o.; AME 50, EBS 20, rottlerin 20 mg/kg; MA 8 mg/kg i.p. x4; GPx-1 (+/+) and (−/−) mice
Experimental: as §1, §2

MDA, 4-HNE = assay: Striatal lipid peroxidation (MDA, 4-HNE) after MA; details: MDA and 4-HNE; striatum, 3 days after final MA; p.o.; AME 50, EBS 20, rottlerin 20 mg/kg; GPx-1 (+/+) and (−/−) mice
Experimental: as §1
The amount of lipid peroxidation was assessed by measuring the accumulation of thiobarbituric acid-reactive substance in homogenates of striatal tissue and is expressed as malondialdehyde (MDA) content (Kim et al., 1999, 2000b, 2002). In brief, 0.1 ml of the homogenate (or standard solutions prepared daily from 1,1,3,3-tetra-methoxypropane) and 0.75 ml of the working solution (thiobarbituric acid 0.37% and perchloric acid 6.4%, 2:1 v/v) were mixed and heated in a water bath to 95° C. for 1 h. After cooling (10 min in ice water bath), the flocculent precipitate was removed by centrifugation at 3200×g for 10 min. The supernatant was neutralized and filtered prior to injection on an ODS 5 μm column. Mobile phase consisted of 50 mM PBS (pH 6.0): methanol (58:42, v/v). Isocratic separation was performed with 1.0 ml/min flow rate and detection at 532 nm using a UV/VIS HPLC-Detector (Model 486, Waters Associates, Milford, Mass., USA). MDA values were expressed as nmole/mg protein.
4-hydroxy-2-nonenal (4HNE) is major product of the lipid peroxidation process (Benedetti et al., 1980). Determining of 4HNE was performed as slot blot analysis (Zhang et al., 2000). Briefly, following transfer, the PVDF membranes were preincubated with 5% non-fat milk and incubated overnight at 4° C. with anti-4HNE (1:2000, Calbiochem, San Diego, Calif., USA). After incubation with primary antibody, membranes were incubated with a HRP-conjugated secondary antibody. Subsequent visualization was performed using enhanced chemiluminescence system (ECL Plus®, GE healthcare).

[2] = test system: Iba-1 (a marker of microgliosis); assay: Iba-1 expression after MA (western blot); details: p.o.; AME 50, EBS 20, rottlerin 20 mg/kg; MA 8 mg/kg i.p. x4; GPx-1 (+/+) and (−/−) mice
Experimental: as §1, §2

[3] = test system: brain-derived neurotrophic factor (BDNF); assay: Striatal BDNF expression after MA (western blot); details: p.o.; AME 50, EBS 20, rottlerin 20 mg/kg; MA 8 mg/kg i.p. x4; GPx-1 (+/+) and (−/−) mice
Experimental: as §1, §2

[4] = test system: glial cell line-derived neurotrophic factor (GDNF); assay: Striatal GDNF expression after MA (western blot); details: p.o.; AME 50, EBS 20, rottlerin 20 mg/kg; MA 8 mg/kg i.p. x4; GPx-1 (+/+) and (−/−) mice
Experimental: as §1, §2

phospho MDM2-ser 166 = assay: Striatal phospho-MDM2 expression after MA (western blot); details: p.o.; AME 50, EBS 20, rottlerin 20 mg/kg; MA 8 mg/kg i.p. x4; GPx-1 (+/+) and (−/−) mice
Experimental: as §1, §2

Compound	effect on MA-induced increase in IFN-γ expression (interferon (IFN)-γ)	effect on MA-induced increase in protein oxidation (protein carbonyl)	effect on MA-induced increase in TNF-α expression [1]	effect on MA-induced increase in lipid peroxidation (MDA, 4-HNE)	effect on MA-induced increase in Iba-1 expression [2]	effect on MA-induced reduction in BDNF expression [3]	effect on MA-induced reduction in GDNF expression [4]	effect on MA-induced decrease in phospho-MDM2 expression (phospho MDM2-ser 166)
CC(=O)Oc1ccccc1C(=O)Oc1c(C)occc1=O [AME, 3-(2-methyl-4-pyronyl)-2-acetyloxybenzoate]	significantly and consistently attenuating effects	significantly attenuated	significantly and consistently attenuating effects	significantly attenuated	significantly and consistently attenuating effects	significantly attenuated these reductions	significantly attenuated these reductions	significantly attenuated
O=c1c2ccccc2[se]n1-c1ccccc1 [EBS, 2-phenyl-1,2-benzisoselenazol-3(2H)-one]	significantly and consistently attenuating effects	significantly attenuated	significantly and consistently attenuating effects	significantly attenuated	significantly and consistently attenuating effects	significantly attenuated these reductions	significantly attenuated these reductions	significantly attenuated
CC(=O)c1c(O)c(C)c(O)c(Cc2c(O)c3c(c(C(=O)/C=C/c4ccccc4)c2O)OC(C)(C)C=C3)c1O [rottlerin]	significantly and consistently attenuating effects	significantly attenuated	significantly and consistently attenuating effects	significantly attenuated	significantly and consistently attenuating effects	significantly attenuated these reductions	significantly attenuated these reductions	significantly attenuated
